According to patent US20250326725A1, “PI4-Kinase Inhibitors and Methods of Using the Same” (The Board of Trustees of the Leland Stanford Junior …, priority 2019, published 2025):
Several values for one entry are separate records, joined by “and”; a condition that tells them apart may be missing. Equal values may be shown once. Read-outs that look alike come from different tables or passages of the source.

What was measured:
[1] = Cell toxicity (CC50) in BK virus assay
PI4KIIIbeta = target: T1, PI4KIIIbeta (Bos taurus, UniProt O02810); assay: PI-kinase assay, PI4KIIIbeta (Table 4); type: biochemical, bovine
T1 construct: made in house; host or cells: COS-7 cells, transient transfection, anti-HA immunoprecipitate on protein G Sepharose beads
T1 sequence (O02810 whole entry): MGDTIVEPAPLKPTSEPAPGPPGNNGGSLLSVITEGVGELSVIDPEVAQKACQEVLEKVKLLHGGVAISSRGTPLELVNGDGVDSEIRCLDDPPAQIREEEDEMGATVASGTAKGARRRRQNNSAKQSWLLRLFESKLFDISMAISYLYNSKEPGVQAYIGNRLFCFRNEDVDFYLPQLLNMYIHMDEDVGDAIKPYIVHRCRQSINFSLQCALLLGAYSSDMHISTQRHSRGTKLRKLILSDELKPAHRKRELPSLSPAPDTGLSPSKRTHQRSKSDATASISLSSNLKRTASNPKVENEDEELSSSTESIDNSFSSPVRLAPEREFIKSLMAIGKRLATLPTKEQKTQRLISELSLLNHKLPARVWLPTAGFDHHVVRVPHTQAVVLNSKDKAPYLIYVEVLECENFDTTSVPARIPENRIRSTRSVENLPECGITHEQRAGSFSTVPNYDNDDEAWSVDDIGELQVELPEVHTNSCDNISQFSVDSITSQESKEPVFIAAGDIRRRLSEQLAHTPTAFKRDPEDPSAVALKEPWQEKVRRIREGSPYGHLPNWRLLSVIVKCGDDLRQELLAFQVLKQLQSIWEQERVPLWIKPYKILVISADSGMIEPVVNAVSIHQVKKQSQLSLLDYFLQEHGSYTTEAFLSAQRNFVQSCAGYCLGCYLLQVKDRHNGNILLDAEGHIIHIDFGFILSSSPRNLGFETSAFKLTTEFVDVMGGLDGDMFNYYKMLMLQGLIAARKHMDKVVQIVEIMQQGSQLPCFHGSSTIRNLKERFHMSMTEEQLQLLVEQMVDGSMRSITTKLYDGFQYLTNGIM
Procedure: (§1) PI-kinase assay: Compounds are tested in C.1.1. PT kinase assays as described by Shokat et al., “A membrane capture assay for lipid kinase activity.” Nat. Protoc. 2007; 2(10):2459-66.
(§2) General methods of materials: In the assays described here, p110α-p85 complex and p110γ were acquired from Millipore. Assays were performed with La-phosphatidylinositol (Avanti) as described in Knight et al. Nat Protoc. 2007; 2 (10):2459-66. Inhibitor series were prepared 10% DMSO as 5× stocks for the assay. Assays of HsVps34 were performed as described in Knight et al, except that the final assay buffer composition used was changed to 20 mM HEPES 7.5, 100 mM NaCl, 3 mM MgCl, 1 mg/mL PI and 44 nM hvps34 was used in the assay. […] COS-7 cells were cultured in 10 cm dishes and transfected at 70% confluence with 10 μg of plasmid DNA (HA-tagged bovine PI4KIIIβ. HA-tagged human PI4KIIIα) using Lipofectamine 2000 and 5 ml Opti-MEM following the manufacturer's instructions. After 5 hours the transfection medium was replaced with 10 ml complete DMEM. 36 hrs post transfection, cells were washed once with 5 ml PBS (pH 7.4) and lysed in 1 ml of lysis buffer (1) on ice. Lysates were collected by scraping and after 15 min they were centrifuged at 13.000 rpm for 10 min. To the lysates was added 200 gi of protein G Sepharose 4 fast flow beads that were prewashed with PBS and lysis buffer and 2 sg of anti-HA antibody. The tubes were then incubated overnight at 4 degrees C. in a tube rotator. The Sepharose beads in the lysate were washed twice with 150 mM NaCl in RIPA buffer, twice with RIPA buffer and once with kinase buffer (50 mM Tris/HCl, pH 7.5, 20 mM MgCl2, 1 mM EFTA, 1 mM PtdIns, 0.4% Triton X-100, 0.5 mg/mL BSA) and finally the beads were resuspended in 200 μL kinase buffer. Kinase reactions were run in a mixture of 45 μL of PI buffer (1 mM P1 in kinase buffer), 10 μL of immunoprecipitated beads, 2 µL of inhibitors (dissolved and diluted in DMSO) or DMSO and 5 μL of [γ-^32P]-ATP (1 mM and 2 μCi/tube). The immunoprecipitates in PI buffer were pre-incubated with the drugs for 20 min prior the initiation of kinase reaction by adding ATP and the reactions were carried out for 30 min in 15 ml polyproplyene tubes. Reactions were terminated by addition of 3 ml of CHCl3:CH3OH:HCl (200:100:0.75) followed by 0.6 ml of 0.61N HCl to induce phase separation. The mixtures were vortexed, centrifuged at 2000 rpm for 2 min and the upper phase was discarded. To the lower phase was added 1.5 ml of CHCl3:CH3OH:0.6N HCl (3:48:47) and the mixture vortexed and centrifuged at 2000 rpm for 2 ruin. The lower phase was then transferred to counting vials and evaporated. Samples were counted in a scintillation beta counter after adding 5 ml of Instafluor (Perkin-Elmer).
(§3) Selected compounds of Tables 1-3 were prepared and tested for inhibition activity in a variety of kinase assays.

PI4KIIIalpha = target: T2, PI4KIIIalpha (Homo sapiens, UniProt P42356); assay: PI-kinase assay, PI4KIIIalpha (Table 4); type: biochemical
T2 construct: made in house; host or cells: COS-7 cells, transient transfection, anti-HA immunoprecipitate on protein G Sepharose beads
T2 sequence (P42356 whole entry): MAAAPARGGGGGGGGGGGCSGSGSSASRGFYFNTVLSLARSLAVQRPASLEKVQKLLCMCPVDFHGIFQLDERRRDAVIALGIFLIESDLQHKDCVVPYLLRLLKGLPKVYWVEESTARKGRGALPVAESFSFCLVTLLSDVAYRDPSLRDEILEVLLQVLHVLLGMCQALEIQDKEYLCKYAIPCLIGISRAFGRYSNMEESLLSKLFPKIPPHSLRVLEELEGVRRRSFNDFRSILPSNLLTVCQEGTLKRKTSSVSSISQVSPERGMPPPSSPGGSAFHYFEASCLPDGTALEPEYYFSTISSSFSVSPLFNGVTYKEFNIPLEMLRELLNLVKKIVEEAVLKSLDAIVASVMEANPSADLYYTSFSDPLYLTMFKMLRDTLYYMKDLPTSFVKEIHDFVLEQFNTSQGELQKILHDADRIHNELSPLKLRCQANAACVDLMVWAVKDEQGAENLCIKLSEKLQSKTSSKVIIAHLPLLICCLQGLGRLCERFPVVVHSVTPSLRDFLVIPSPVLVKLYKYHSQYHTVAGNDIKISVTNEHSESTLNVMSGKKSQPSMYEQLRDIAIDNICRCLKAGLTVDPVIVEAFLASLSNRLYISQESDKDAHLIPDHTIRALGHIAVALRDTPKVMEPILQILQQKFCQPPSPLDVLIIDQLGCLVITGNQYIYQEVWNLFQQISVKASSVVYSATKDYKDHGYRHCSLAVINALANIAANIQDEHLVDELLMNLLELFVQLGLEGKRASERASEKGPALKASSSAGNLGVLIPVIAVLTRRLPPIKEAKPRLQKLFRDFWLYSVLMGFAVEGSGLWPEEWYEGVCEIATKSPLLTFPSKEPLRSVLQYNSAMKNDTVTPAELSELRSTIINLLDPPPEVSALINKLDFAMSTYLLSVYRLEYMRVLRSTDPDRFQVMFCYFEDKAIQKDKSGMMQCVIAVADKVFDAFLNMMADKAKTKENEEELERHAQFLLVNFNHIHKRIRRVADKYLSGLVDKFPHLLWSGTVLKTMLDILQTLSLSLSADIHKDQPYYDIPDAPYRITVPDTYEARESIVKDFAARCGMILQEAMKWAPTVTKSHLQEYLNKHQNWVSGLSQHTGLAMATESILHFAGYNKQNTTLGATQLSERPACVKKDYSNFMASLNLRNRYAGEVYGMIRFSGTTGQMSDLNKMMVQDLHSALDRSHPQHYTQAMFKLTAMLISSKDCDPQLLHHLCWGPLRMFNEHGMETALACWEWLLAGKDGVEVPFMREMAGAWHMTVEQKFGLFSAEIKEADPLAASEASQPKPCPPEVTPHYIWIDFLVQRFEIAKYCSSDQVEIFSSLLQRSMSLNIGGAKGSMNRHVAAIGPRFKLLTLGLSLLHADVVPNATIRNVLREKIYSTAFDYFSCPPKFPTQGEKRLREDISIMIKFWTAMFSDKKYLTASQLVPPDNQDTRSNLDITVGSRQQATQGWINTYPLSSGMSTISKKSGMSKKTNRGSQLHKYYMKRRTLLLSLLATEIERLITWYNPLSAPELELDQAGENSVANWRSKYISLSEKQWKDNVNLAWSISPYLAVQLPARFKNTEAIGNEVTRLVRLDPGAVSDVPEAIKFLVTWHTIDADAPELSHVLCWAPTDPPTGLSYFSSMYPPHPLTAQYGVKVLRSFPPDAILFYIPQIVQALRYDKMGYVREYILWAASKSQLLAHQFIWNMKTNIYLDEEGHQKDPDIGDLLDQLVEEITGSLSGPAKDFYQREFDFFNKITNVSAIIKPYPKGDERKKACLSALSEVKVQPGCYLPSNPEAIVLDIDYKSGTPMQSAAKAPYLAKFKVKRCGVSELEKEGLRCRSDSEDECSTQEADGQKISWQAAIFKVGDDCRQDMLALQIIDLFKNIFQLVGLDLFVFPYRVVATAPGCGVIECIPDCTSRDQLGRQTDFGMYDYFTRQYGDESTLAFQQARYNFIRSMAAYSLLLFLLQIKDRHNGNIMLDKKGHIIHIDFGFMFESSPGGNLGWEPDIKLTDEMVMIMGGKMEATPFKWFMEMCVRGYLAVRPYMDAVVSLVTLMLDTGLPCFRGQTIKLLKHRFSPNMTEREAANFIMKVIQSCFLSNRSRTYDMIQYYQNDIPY
Procedure: as §1, §2, §3

[2] = system: BK virus (Polyomaviridae); assay: BK virus antiviral assay (EC50); type: cell-based; details: Betapolyomavirus hominis
[3] = Microsomal stability, human liver microsomes; type: in vitro ADME; details: for half-life: read-out: HLM/MLM (t ½ min): HLM
cells (EV68 assay) = assay: Cell toxicity (CC50) in EV68 assay
[4] = Cell toxicity (CC50) in EV68 assay; details: EV68 CC50
HCV = assay: Anti-HCV assay (EC50); type: cell-based; details: Hepatitis C virus, read-out: HCV EC50
Procedure: Anti-HCV assay: Anti-HCV assays are performed as described by Cho et al. “Identification of a class of HCV inhibitors directed against the nonstructural protein NS4B.” Sci. Transl. Med. 2011; 2(15):15ra6.

HeLa S3 cells = assay: Cell toxicity (CC50) in HRV assay; details: human
[5] = Cell toxicity (CC50) in HRV assay; details: human, HRV CC50
[6] = Caco-2 permeability assay; type: in vitro ADME; details: human, read-out: Caco2 Papp × 1e−6 cm/s
Procedure: Compounds of interest were tested in a variety of cell-based assays for antiviral activity.

EV68 = EV68 antiviral assay (EC50); type: cell-based
cells (EV71 assay) = assay: Cell toxicity (CC50) in EV71 assay
[7] = Cell toxicity (CC50) in EV71 assay; details: EV71 CC50
HRV = assay: Rhinovirus antiviral assay (EC50); type: cell-based; details: Human rhinovirus sp.
[8] = Microsomal stability, mouse liver microsomes; type: in vitro ADME
EV71 = EV71 antiviral assay (EC50); type: cell-based, Enterovirus 71
[9] = read-out: HLM/MLM (t ½ min): MLM
[10] = with ritonavir (concentration not stated), + Ritonavir, read-out: HLM/MLM (t ½ min) + Ritonavir: MLM

SMILES | CC50 [1] | IC50 (PI4KIIIbeta) | IC50 (PI4KIIIalpha) | EC50 [2] | HLM/MLM (t ½ min) + Ritonavir: HLM [3] | half-life [3] | CC50 (cells (EV68 assay)) | CC50 [4] | EC50 (HCV) | CC50 (HeLa S3 cells) | CC50 [5] | Papp [6] | EC50 (EV68) | CC50 (cells (EV71 assay)) | CC50 [7] | EC50 (HRV) | half-life [8, 9] | half-life [8, 10] | EC50 (EV71; Enterovirus A, EV71) | EC50 (EV71)
COc1ccc(-c2sc(NC(C)(C)C3CCOCC3)nc2C)cc1S(=O)(=O)Nc1c(C)cccc1F [Compound C] | > 100 µM | < 0.1 µM | > 10 µM | 0.07 µM | – | – | – | – | – | – | – | – | – | – | – | – | – | – | – | –
COc1ccc(-c2sc(NC(C)(C)C3CCOCC3)nc2C)cc1S(=O)(=O)Nc1cccnc1C [Compound S-3] | – | – | – | – | 159/159 min | 0.967 h | 47 µM | 47.5 µM | 0.0005 µM | 70 µM | 70.5 µM | 7.42 ×10⁻⁶ cm/s | 0.0013 µM and 0.001 µM | 86 µM | 86.6 µM | 0.0005 µM | 0.967 h | 2.65 h | 0.0005 µM | –
COc1ccc(-c2sc(NC3(C4CCOCC4)CC3)nc2C)cc1S(=O)(=O)Nc1ccc(Cl)cc1Cl [Compound S-14] | – | – | – | – | – | – | 39 µM | 39.4 µM | 0.0144 µM | 36 µM | 36.4 µM | – | 33.3 µM and 33 µM | 37 µM | 37.2 µM | 0.014 µM | – | – | 0.0104 µM | 0.01 µM
COc1ccc(-c2sc(NC(C)(C)c3ccccc3)nc2C)cc1S(=O)(=O)Nc1c(C)cccc1F [Compound S-32] | – | < 0.1 µM | > 10 µM | – | 159 min | 0.283 h | – | 100 µM | 0.0002 µM | – | – | 0.04 ×10⁻⁶ cm/s | 0.0006 µM and 0.0003 µM | – | – | – | 0.367 h | 2.22 h | – | –
COc1ccc(-c2sc(NC(C)(C)c3cccnc3)nc2C)cc1S(=O)(=O)Nc1c(C)cccc1F [Compound S-39] | – | – | – | – | 159 min | 1.38 h | 19 µM | 19.9 µM | 0.0002 µM | 47 µM | 47.7 µM | 7.6 ×10⁻⁶ cm/s | 0.0008 µM | 99 µM | 99 µM | 0.0002 µM | 1.12 h | 1.38 h | 0.0002 µM | –
COc1ccc(-c2sc(NC(C)C3CCOCC3)nc2C)cc1S(=O)(=O)Nc1c(C)cccc1F (stereo not drawn) [Compound S-76] | 27 µM | – | – | < 0.0006 µM | – | – | – | 9.4 µM | – | – | 9.3 µM | – | 0.005 µM | – | 36 µM | 0.0019 µM | – | – | 0.0018 µM | –
